Test results from patent US20240082406A1, “BENZOHETEROCYCLE SUBSTITUTED TETRAHYDROISOQUINOLINE COMPOUND” (SHANGHAI JEMINCARE PHARMACEUTICAL CO., LTD, priority 2020, published 2024).

Assays:
[1] = test system: Sprague-Dawley rats; assay: Effects of multiple administrations on serum phosphorus concentration in rats; assay type: in vivo, rat; conditions: for 24 h nP, course: after 15 days
Experimental: Compound D1-P1-S was evaluated by measuring serum phosphorus concentration, urinary phosphorus, urinary sodium concentration and fecal form in rats.
(§1) Six-week-old Sprague-Dawley rats were purchased from Beijing Vital River Laboratory Animal Technology Co., Ltd. Two animals per cage were placed in SPF class animal rooms for acclimatization for about a week. Throughout the study period, animals were fed feed and water freely and the light cycle was 12 h light/12 h dark. Animal groups: vehicle group, n=5; Tenapanor 0.05 mg/kg, n=5; D1-P1-S 0.01 mg/kg, n=5; D1-P1-S 0.05 mg/kg, n=5; D1-P1-S 0.5 mg/kg, n=5; D1-P1-S 1.0 mg/kg, n=5.
After the start of the experiment, the feeding rhythm of the rats was adjusted to diurnal feeding by fasting overnight for 16 hours and recovering feed for 8 hours during the day. After the administration started, the test compound or the solvent (0.5% Tween 80+99.5% distilled water) was gavaged twice a day during the feeding period, with an interval of 4 hours, for 14 consecutive days. Animal body weight and food consumption were measured every day, serum phosphorus concentration (including baseline value before administration), 24-hour urinary phosphorus excretion amount, and 24-hour urinary sodium excretion amount were measured 1-2 times a week, and feces form in the collection funnel was scored (through two independent observations to assess fecal form). Standard for fecal form score: 1, normal pellets; 2, slightly soft feces (pellets adhered to the side wall of the collector due to moisture); 3, soft feces (loss the normal shape of the pellets); 4, loose and amorphous (completely loss shape, with blot pattern); 5, diarrhea (watery feces). Fecal form score (FFS) in rats was determined by averaging two independent observation scores for all rats within the same group (n=5); the vehicle group mean was 1.
After standing at room temperature for 2 hours, the blood was centrifuged at 4500 g for 10 minutes at 4° C.; and the urine was centrifuged at 3220 g for 5 minutes at 4° C., and the serum phosphorus concentration and urinary phosphorus concentration (phosphomolybdic acid UV endpoint colorimetric method), urinary sodium concentration (indirect ion electrode method) were measured.
(§2) Results were indicated as mean±standard error (Means±SEM), n=5 animals/group. Urinary phosphorus excretion amount (or urinary sodium excretion amount) in rats was standardized corrected against respective dietary phosphorus (or sodium) intake, and the formula was: standardized correction value of urinary phosphorus excretion amount (indicated as nP)=urinary phosphorus excretion amount÷dietary phosphorus intake amount; standardized correction value of urinary sodium excretion amount (indicated as nNa)=urinary sodium excretion amount÷dietary sodium intake amount; fecal form score was analyzed by two-way variance, and verified by non-parametric test. *, p<0.05; **, p<0.01; ***, p<0.001; ****, p<0.000^1.

[2] = test system: Sprague-Dawley rats; assay: Inhibition of phosphate and sodium absorption in the intestine of rats by a single dose; assay type: in vivo, rat; conditions: normal rats
Experimental: Compound D1-P1-S was evaluated by measuring urinary phosphorus, urinary sodium concentration and fecal form.
as §1, with “tenapanor 0.3 mg/kg group, n=5; D1-P1-S 0.03 mg/kg group, n=5; D1-P1-S 0.1” for “Tenapanor 0.05”, “0.3” for “0.01”, “D1-P1-S1.0” for “D1-P1-S 0.05 mg/kg, n=5; D1-P1-S 0.5 mg/kg, n=5; D1-P1-S 1.0”
On the day of the experiment, after 8 hours of fasting, the animals were administered the test compound or solvent (0.5% Tween 80+99.5% distilled water) by gavage. The animals were then transferred into metabolic cages for single-cage feeding, and the feed was restored. After 16 hours of administration, urine samples were collected and food consumption was recorded, and the fecal form in the collection funnel was evaluated by two independent observations. Standard for fecal form score: 1, normal pellets; 2, slightly soft feces (pellets adhered to the side wall of the collector due to moisture); 3, soft feces (loss the normal shape of the pellets); 4, loose and amorphous (completely loss shape, with blot pattern); 5, diarrhea (watery feces). Fecal form score (FFS) in rats was determined by averaging two independent observation scores for all rats within the same group (n=5); the vehicle group mean was 1.
The urine was centrifuged at 3220 g for 5 minutes at 4° C., and the urinary phosphorus concentration (phosphomolybdic acid UV endpoint colorimetric method) and urinary sodium concentration (ion selective electrode method) were measured.
as §2, with “error (Means±SEM).” for “error (Means±SEM), n=5 animals/group.”, “by monofactorial” for “by two-way”, “p<0.01; […]” for “p<0.01; ***,”, “****, p<0.0001.” for “****, p<0.000^1.”

[3] = 1 day of treatment at 0.01, 0.05, 0.5 and 1.0 mg/kg

fecal form score vs solvent control ([1]; 1 day of treatment at 0.05, 0.5 and 1.0 mg/kg): significantly increased | loose feces ([1]; high doses of 0.5 mg/kg and 1.0 mg/kg, observed less often as administration continued): more severe loose feces | loose feces ([1]; low dose of 0.01 mg/kg): no rats had loose feces | water content in rat feces (fecal form) ([2]; single gavage, with increasing dose): tendency of increasing
SMILES: CN1Cc2c(Cl)cc(Cl)cc2C(c2ccc3cn(CCOCCOCCNC(=O)NCCCCNC(=O)NCCOCCOCCn4cc5ccc([C@@H]6CN(C)Cc7c(Cl)cc(Cl)cc76)cc5n4)nc3c2)C1 (stereo partly drawn) [Embodiment D1-P1-S]
24 h nNa (urinary sodium excretion / dietary sodium intake) vs solvent group [1, 3]: decreased significantly | 24 h nP (urinary phosphorus excretion / dietary phosphorus intake) vs solvent group [1, 3]: tended to decrease | 24 h nP vs solvent group ([1]; 1 day of treatment, 1.0 mg/kg): significantly decreased | 24 h nP vs solvent group ([1]; 10 days of treatment at 0.01, 0.05, 0.5 and 1.0 mg/kg): decreased significantly | 24 h nNa ([1]; after 10 days of treatment, 0.01 mg/kg and 0.05 mg/kg): increasing trend | 24 h nP, course [1]: tended to be stable | 24 h nP, course ([1]; low dose group (0.01 mg/kg)): tended to increase | serum phosphorus, course after 10 days ([1]; all dose groups except the highest dose group of 1.0 mg/kg): tended to be stable | serum phosphorus concentration vs solvent control ([1]; gavage twice a day, 0.5 mg/kg or 1.0 mg/kg for 4 days): significantly decreased | serum phosphorus concentration vs solvent control ([1]; twice a day, 10 days of treatment at 0.01, 0.05, 0.5, 1.0 mg/kg): decreased significantly | urinary phosphorus excretion amount, dose dependence ([2]; single gavage 0.03-1.0 mg/kg, urine collected after 16 hours): dose-effect relationship | urinary sodium excretion amount ([2]; single gavage, 16 h urine): significantly reduce | urinary phosphorus excretion amount ([2]; single gavage, doses of 0.3 mg/kg and 1.0 mg/kg, 16 h urine): significantly reduce | effect in reducing urinary phosphorus excretion amount compared with Tenapanor ([2]; single gavage, same dose (0.3 mg/kg)): better than Tenapanor
